According to ChEMBL document CHEMBL1146065, “Structure-based optimization of azole antifungal agents by CoMFA, CoMSIA, and molecular docking” (2006):
In brackets after ≈: the same amount, converted by molar mass.

What was measured:
Format in all cases: functional
Microsporum = assay: Antifungal activity against Microsporum lanosum
Candida parapsilosis = assay: Antifungal activity against Candida parapsilosis; details: Lodderomyces parapsilosis
Candida tropicalis = assay: Antifungal activity against Candida tropicalis
Fonsecaea pedrosoi = assay: Antifungal activity against Fonsecaea pedrosoi
Trichophyton rubrum = assay: Antifungal activity against Trichophyton rubrum
Cryptococcus neoformans = assay: Antifungal activity against Cryptococcus neoformans
Candida albicans = assay: Antifungal activity against Candida albicans
Aspergillus fumigatus = assay: Antifungal activity against Aspergillus fumigatus
Sporothrix schenckii = assay: Antifungal activity against Sporothrix schenckii

Molecule `Cc1cccc(C(=O)Nc2ccc(CN(C)CC(O)(Cn3cncn3)c3ccc(F)cc3F)cc2)c1` (stereo not drawn) has an MIC80 (Microsporum) of 0.25 µg/mL (≈ 0.509 µM), an MIC80 (Candida parapsilosis) of 0.0625 µg/mL (≈ 0.127 µM) and an MIC80 (Candida tropicalis) of 1 µg/mL (≈ 2.03 µM). It also gave an MIC80 (Fonsecaea pedrosoi) of 0.5 µg/mL (≈ 1.02 µM), an MIC80 (Trichophyton rubrum) of no more than 0.125 µg/mL and an MIC80 (Cryptococcus neoformans) of 1 µg/mL (≈ 2.03 µM). It also gave an MIC80 (Candida albicans) of 0.031 µg/mL (≈ 0.0631 µM) and an MIC80 (Aspergillus fumigatus) of 16 µg/mL (≈ 32.6 µM).
`CN(Cc1ccc(NC(=O)c2ccccc2Cl)cc1)CC(O)(Cn1cncn1)c1ccc(F)cc1F` (stereo not drawn) was tested, and the MIC80 (Microsporum) was 2 µg/mL (≈ 3.91 µM), the MIC80 (Candida parapsilosis) was 0.25 µg/mL (≈ 0.488 µM) and the MIC80 (Candida tropicalis) was 0.5 µg/mL (≈ 0.977 µM). For the same molecule, the MIC80 (Fonsecaea pedrosoi) was 2 µg/mL (≈ 3.91 µM), the MIC80 (Trichophyton rubrum) was 4 µg/mL (≈ 7.81 µM) and the MIC80 (Cryptococcus neoformans) was 2 µg/mL (≈ 3.91 µM). The MIC80 (Candida albicans) was 0.0625 µg/mL (≈ 0.122 µM) and the MIC80 (Aspergillus fumigatus) was 32 µg/mL (≈ 62.5 µM).
For `CN(Cc1ccc(NC(=O)c2ccc(Cl)cc2)cc1)CC(O)(Cn1cncn1)c1ccc(F)cc1F` (stereo not drawn), the MIC80 (Microsporum) was 8 µg/mL (≈ 15.6 µM), the MIC80 (Candida parapsilosis) was 0.031 µg/mL (≈ 0.0606 µM) and the MIC80 (Candida tropicalis) was 0.016 µg/mL (≈ 0.0313 µM). It also gave an MIC80 (Fonsecaea pedrosoi) of no more than 0.125 µg/mL, an MIC80 (Trichophyton rubrum) of no more than 0.125 µg/mL and an MIC80 (Cryptococcus neoformans) of 0.25 µg/mL (≈ 0.488 µM). For the same molecule, the MIC80 (Candida albicans) was 0.016 µg/mL (≈ 0.0313 µM) and the MIC80 (Aspergillus fumigatus) was 32 µg/mL (≈ 62.5 µM).
In the case of `CN(Cc1ccc(-n2cnn(Cc3cccc(Cl)c3)c2=O)cc1)CC(O)(Cn1cncn1)c1ccc(F)cc1F` (stereo not drawn), the MIC80 (Candida parapsilosis) is reported as 4 µg/mL (≈ 7.07 µM), the MIC80 (Candida tropicalis) is reported as 0.5 µg/mL (≈ 0.883 µM) and the MIC80 (Fonsecaea pedrosoi) is reported as 0.125 µg/mL (≈ 0.221 µM). For the same molecule, the MIC80 (Trichophyton rubrum) was 0.5 µg/mL (≈ 0.883 µM), the MIC80 (Cryptococcus neoformans) was 0.5 µg/mL (≈ 0.883 µM) and the MIC80 (Candida albicans) was 0.016 µg/mL (≈ 0.0283 µM). For the same molecule, the MIC80 (Aspergillus fumigatus) was 8 µg/mL (≈ 14.1 µM) and the MIC80 (Sporothrix schenckii) was 32 µg/mL (≈ 56.5 µM).
`CN(Cc1ccc(NC(=O)c2ccc(Cl)cc2Cl)cc1)CC(O)(Cn1cncn1)c1ccc(F)cc1F` (stereo not drawn) was tested, and the MIC80 (Microsporum) was 0.5 µg/mL (≈ 0.915 µM), the MIC80 (Candida parapsilosis) was 0.125 µg/mL (≈ 0.229 µM) and the MIC80 (Candida tropicalis) was 0.5 µg/mL (≈ 0.915 µM). The MIC80 (Fonsecaea pedrosoi) was no more than 0.125 µg/mL, the MIC80 (Trichophyton rubrum) was 0.5 µg/mL (≈ 0.915 µM) and the MIC80 (Cryptococcus neoformans) was 0.0625 µg/mL (≈ 0.114 µM). For the same molecule, the MIC80 (Candida albicans) was 0.016 µg/mL (≈ 0.0293 µM) and the MIC80 (Aspergillus fumigatus) was 16 µg/mL (≈ 29.3 µM).
With `CN(Cc1ccc(-n2cnn(CC(=O)c3ccc(F)cc3)c2=O)cc1)CC(O)(Cn1cncn1)c1ccc(F)cc1F` (stereo not drawn) the MIC80 (Candida parapsilosis) was 0.06 µg/mL (≈ 0.104 µM), the MIC80 (Candida tropicalis) was 0.0625 µg/mL (≈ 0.108 µM) and the MIC80 (Fonsecaea pedrosoi) was 0.0625 µg/mL (≈ 0.108 µM). For the same molecule, the MIC80 (Trichophyton rubrum) was 2 µg/mL (≈ 3.46 µM), the MIC80 (Cryptococcus neoformans) was 1 µg/mL (≈ 1.73 µM) and the MIC80 (Candida albicans) was 0.004 µg/mL (≈ 0.00693 µM). It also gave an MIC80 (Aspergillus fumigatus) of 64 µg/mL (≈ 111 µM) and an MIC80 (Sporothrix schenckii) of 64 µg/mL (≈ 111 µM).
Work on `CN(Cc1ccc(-n2cnn(Cc3ccc(I)cc3)c2=O)cc1)CC(O)(Cn1cncn1)c1ccc(F)cc1F` (stereo not drawn) yielded an MIC80 (Candida parapsilosis) of 0.031 µg/mL (≈ 0.0472 µM), an MIC80 (Candida tropicalis) of 1 µg/mL (≈ 1.52 µM) and an MIC80 (Fonsecaea pedrosoi) of 0.0625 µg/mL (≈ 0.0951 µM). The MIC80 (Trichophyton rubrum) was 0.25 µg/mL (≈ 0.38 µM), the MIC80 (Cryptococcus neoformans) was 0.25 µg/mL (≈ 0.38 µM) and the MIC80 (Candida albicans) was 0.031 µg/mL (≈ 0.0472 µM). For the same molecule, the MIC80 (Aspergillus fumigatus) was 2 µg/mL (≈ 3.04 µM) and the MIC80 (Sporothrix schenckii) was 64 µg/mL (≈ 97.3 µM).
Work on `CN(Cc1cccc(C(F)(F)F)c1)CC(O)(Cn1cncn1)c1ccc(F)cc1F` (stereo not drawn) yielded an MIC80 (Candida parapsilosis) of 4 µg/mL (≈ 9.38 µM), an MIC80 (Candida tropicalis) of 0.25 µg/mL (≈ 0.586 µM) and an MIC80 (Fonsecaea pedrosoi) of 1 µg/mL (≈ 2.35 µM). For the same molecule, the MIC80 (Trichophyton rubrum) was 8 µg/mL (≈ 18.8 µM), the MIC80 (Cryptococcus neoformans) was 0.5 µg/mL (≈ 1.17 µM) and the MIC80 (Candida albicans) was 0.032 µg/mL (≈ 0.075 µM). For the same molecule, the MIC80 (Aspergillus fumigatus) was 64 µg/mL (≈ 150 µM) and the MIC80 (Sporothrix schenckii) was 64 µg/mL (≈ 150 µM).
With `CN(Cc1ccc(-n2cnn(Cc3ccc(F)cc3Br)c2=O)cc1)CC(O)(Cn1cncn1)c1ccc(F)cc1F` (stereo not drawn) the MIC80 (Candida parapsilosis) was 0.008 µg/mL (≈ 0.0127 µM), the MIC80 (Candida tropicalis) was 0.125 µg/mL (≈ 0.199 µM) and the MIC80 (Fonsecaea pedrosoi) was 0.25 µg/mL (≈ 0.398 µM). For the same molecule, the MIC80 (Trichophyton rubrum) was 1 µg/mL (≈ 1.59 µM), the MIC80 (Cryptococcus neoformans) was 0.125 µg/mL (≈ 0.199 µM) and the MIC80 (Candida albicans) was 0.004 µg/mL (≈ 0.00636 µM). For the same molecule, the MIC80 (Aspergillus fumigatus) was 16 µg/mL (≈ 25.5 µM) and the MIC80 (Sporothrix schenckii) was 64 µg/mL (≈ 102 µM).
For `CN(Cc1ccc(-n2cnn(CC(=O)c3ccc(C(C)(C)C)cc3)c2=O)cc1)CC(O)(Cn1cncn1)c1ccc(F)cc1F` (stereo not drawn), the MIC80 (Candida parapsilosis) was 2 µg/mL (≈ 3.25 µM), the MIC80 (Candida tropicalis) was 0.5 µg/mL (≈ 0.812 µM) and the MIC80 (Fonsecaea pedrosoi) was 2 µg/mL (≈ 3.25 µM). The MIC80 (Trichophyton rubrum) was 64 µg/mL (≈ 104 µM), the MIC80 (Cryptococcus neoformans) was 32 µg/mL (≈ 52 µM) and the MIC80 (Candida albicans) was 0.0625 µg/mL (≈ 0.102 µM). For the same molecule, the MIC80 (Aspergillus fumigatus) was 64 µg/mL (≈ 104 µM) and the MIC80 (Sporothrix schenckii) was 64 µg/mL (≈ 104 µM).
`CCc1ccc(Cn2ncn(-c3ccc(CN(C)CC(O)(Cn4cncn4)c4ccc(F)cc4F)cc3)c2=O)cc1` (stereo not drawn) showed an MIC80 (Candida parapsilosis) of 0.008 µg/mL (≈ 0.0143 µM), an MIC80 (Candida tropicalis) of 0.25 µg/mL (≈ 0.447 µM) and an MIC80 (Fonsecaea pedrosoi) of 0.25 µg/mL (≈ 0.447 µM). The MIC80 (Trichophyton rubrum) was 0.5 µg/mL (≈ 0.893 µM), the MIC80 (Cryptococcus neoformans) was 0.5 µg/mL (≈ 0.893 µM) and the MIC80 (Candida albicans) was 0.008 µg/mL (≈ 0.0143 µM). It also gave an MIC80 (Aspergillus fumigatus) of 8 µg/mL (≈ 14.3 µM) and an MIC80 (Sporothrix schenckii) of 64 µg/mL (≈ 114 µM).
`Cc1ccc(C(=O)Cn2ncn(-c3ccc(CN(C)CC(O)(Cn4cncn4)c4ccc(F)cc4F)cc3)c2=O)c(Cl)c1` (stereo not drawn) showed an MIC80 (Candida parapsilosis) of 0.5 µg/mL (≈ 0.822 µM), an MIC80 (Candida tropicalis) of 0.0625 µg/mL (≈ 0.103 µM) and an MIC80 (Fonsecaea pedrosoi) of 1 µg/mL (≈ 1.64 µM). The MIC80 (Trichophyton rubrum) was 64 µg/mL (≈ 105 µM), the MIC80 (Cryptococcus neoformans) was 64 µg/mL (≈ 105 µM) and the MIC80 (Candida albicans) was 0.125 µg/mL (≈ 0.206 µM). For the same molecule, the MIC80 (Aspergillus fumigatus) was 32 µg/mL (≈ 52.6 µM) and the MIC80 (Sporothrix schenckii) was 64 µg/mL (≈ 105 µM).
`CCc1ccc(C(=O)Cn2ncn(-c3ccc(CN(C)CC(O)(Cn4cncn4)c4ccc(F)cc4F)cc3)c2=O)cc1` (stereo not drawn) gave an MIC80 (Candida parapsilosis) of 2 µg/mL (≈ 3.4 µM), an MIC80 (Candida tropicalis) of 0.5 µg/mL (≈ 0.851 µM) and an MIC80 (Fonsecaea pedrosoi) of 8 µg/mL (≈ 13.6 µM). The MIC80 (Trichophyton rubrum) was 32 µg/mL (≈ 54.5 µM), the MIC80 (Cryptococcus neoformans) was 16 µg/mL (≈ 27.2 µM) and the MIC80 (Candida albicans) was 0.25 µg/mL (≈ 0.425 µM). The MIC80 (Aspergillus fumigatus) was 64 µg/mL (≈ 109 µM) and the MIC80 (Sporothrix schenckii) was 64 µg/mL (≈ 109 µM).
`CN(Cc1ccc(-n2cnn(Cc3ccccc3)c2=O)cc1)CC(O)(Cn1cncn1)c1ccc(F)cc1F` (stereo not drawn) gave an MIC80 (Candida parapsilosis) of 0.016 µg/mL (≈ 0.0301 µM), an MIC80 (Candida tropicalis) of 1 µg/mL (≈ 1.88 µM) and an MIC80 (Fonsecaea pedrosoi) of 0.5 µg/mL (≈ 0.941 µM). The MIC80 (Trichophyton rubrum) was 16 µg/mL (≈ 30.1 µM), the MIC80 (Cryptococcus neoformans) was 64 µg/mL (≈ 120 µM) and the MIC80 (Candida albicans) was 0.031 µg/mL (≈ 0.0583 µM). It also gave an MIC80 (Aspergillus fumigatus) of 64 µg/mL (≈ 120 µM) and an MIC80 (Sporothrix schenckii) of 64 µg/mL (≈ 120 µM).
In the case of `CN(Cc1ccc(-n2cnn(Cc3ccc(Cl)cc3)c2=O)cc1)CC(O)(Cn1cncn1)c1ccc(F)cc1F` (stereo not drawn), the MIC80 (Candida parapsilosis) is reported as 0.008 µg/mL (≈ 0.0141 µM), the MIC80 (Candida tropicalis) is reported as 0.0625 µg/mL (≈ 0.11 µM) and the MIC80 (Fonsecaea pedrosoi) is reported as 0.125 µg/mL (≈ 0.221 µM). It also gave an MIC80 (Trichophyton rubrum) of 0.5 µg/mL (≈ 0.883 µM), an MIC80 (Cryptococcus neoformans) of 0.5 µg/mL (≈ 0.883 µM) and an MIC80 (Candida albicans) of 0.002 µg/mL (≈ 0.00353 µM). It also gave an MIC80 (Aspergillus fumigatus) of 4 µg/mL (≈ 7.07 µM) and an MIC80 (Sporothrix schenckii) of 64 µg/mL (≈ 113 µM).
For `CN(Cc1ccccc1[N+](=O)[O-])CC(O)(Cn1cncn1)c1ccc(F)cc1F` (stereo not drawn), the MIC80 (Candida parapsilosis) was 2 µg/mL (≈ 4.96 µM), the MIC80 (Candida tropicalis) was 0.25 µg/mL (≈ 0.62 µM) and the MIC80 (Fonsecaea pedrosoi) was 1 µg/mL (≈ 2.48 µM). It also gave an MIC80 (Trichophyton rubrum) of 0.25 µg/mL (≈ 0.62 µM), an MIC80 (Cryptococcus neoformans) of 0.25 µg/mL (≈ 0.62 µM) and an MIC80 (Candida albicans) of 2 µg/mL (≈ 4.96 µM). It also gave an MIC80 (Aspergillus fumigatus) of 4 µg/mL (≈ 9.92 µM) and an MIC80 (Sporothrix schenckii) of 64 µg/mL (≈ 159 µM).
